Laboratory results from PubChem BioAssay (NCI).
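Five concentrations, 48 hours, 96-well plates. GI50 is the concentration that inhibits growth by half. TGI is the concentration that stops growth completely.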

Experiments:
Assay in all cases: growth of human tumour cells (NCI), 48 h
[1] = test system: A498 renal
[2] = test system: SF-268 CNS
[3] = test system: UO-31 renal
[4] = test system: SF-295 CNS
[5] = test system: HT29 colon
[6] = test system: RPMI-8226 leukemia
[7] = test system: OVCAR-8 ovarian
[8] = test system: HOP-92 NSCLC
[9] = test system: EKVX NSCLC
[10] = test system: CCRF-CEM leukemia
[11] = test system: NCI-H226 lung
[12] = test system: NCI-H23 lung
[13] = test system: CAKI-1 renal
[14] = test system: COLO 205 colon
[15] = test system: UACC-257 melanoma
[16] = test system: M14 melanoma
[17] = test system: HCC-2998 colon
[18] = test system: SK-MEL-5 melanoma
[19] = test system: HOP-62 NSCLC
[20] = test system: NCI/ADR-RES ovarian
[21] = test system: KM12 colon
[22] = test system: PC-3 prostate
[23] = test system: K-562 leukemia
[24] = test system: MALME-3M melanoma
[25] = test system: SK-MEL-28 melanoma
[26] = test system: IGROV1 ovarian
[27] = test system: MOLT-4 leukemia
[28] = test system: SNB-19 CNS
[29] = test system: DU-145 prostate

Cn1c(=O)n(CCCO)c(=O)c2c1nc(Oc1cccc(OC(F)(F)F)c1)n2Cc1ccc(Cl)cc1
GI50 [1]: 13.8 µM | TGI [1]: 26.9 µM | GI50 [2]: 8.54 µM | TGI [2]: 24.5 µM | GI50 [3]: 3.91 µM | TGI [3]: 17.7 µM | GI50 [4]: 13 µM | TGI [4]: 28.5 µM | GI50 [5]: 8.01 µM | TGI [5]: 23.2 µM | GI50 [6]: 10.4 µM | TGI [6]: 51.3 µM | GI50 [7]: 14.4 µM | TGI [7]: 37.6 µM | GI50 [8]: 11 µM | TGI [8]: 24.5 µM | GI50 [9]: 12.4 µM | TGI [9]: 32.2 µM | GI50 [10]: 14.6 µM | TGI [10]: 39.8 µM | GI50 [11]: 16.8 µM | TGI [11]: 38.4 µM | GI50 [12]: 15.8 µM | TGI [12]: 37.6 µM | GI50 [13]: 9.05 µM | TGI [13]: 22.6 µM | GI50 [14]: 12.6 µM | TGI [14]: 30.3 µM | GI50 [15]: 17.5 µM | TGI [15]: 34.5 µM | GI50 [16]: 11.8 µM | TGI [16]: 27.4 µM | GI50 [17]: 15 µM | TGI [17]: 33.9 µM | GI50 [18]: 16 µM | TGI [18]: 30.9 µM | GI50 [19]: 16 µM | TGI [19]: 33.3 µM | GI50 [20]: 11.4 µM | TGI [20]: 33.4 µM | GI50 [21]: 13.5 µM | TGI [21]: 32.4 µM | GI50 [22]: 13.7 µM | TGI [22]: 29.3 µM | GI50 [23]: 7.72 µM | TGI [23]: 68.8 µM | GI50 [24]: 15.7 µM | TGI [24]: 31.6 µM | GI50 [25]: 14.1 µM | TGI [25]: 29.5 µM | GI50 [26]: 14.2 µM | TGI [26]: 31.9 µM | GI50 [27]: 5.21 µM | TGI [27]: 21.7 µM | GI50 [28]: 18.4 µM | TGI [28]: 40.1 µM | GI50 [29]: 13.2 µM | TGI [29]: 27.5 µM
